Data published in paper PMC5670239, “Structural basis for mutually exclusive co-transcriptional nuclear cap-binding complexes with either NELF-E or ARS2” (Nature Communications, 2017).
Where a chain is given by its changes, count along the chain named.

Assays:
CBC (6 mutations) = molecular target: T1, CBC (6 mutations) (Homo sapiens, UniProt P52298, D107R/Y50A/Y89A); experiment: ITC, m^7GTP binding to CBC with triple mutants of both CBP20 and CBP80; settings: 25 °C, pH 7.8, CBP80 Y461A/R610E/H651A + CBP20 Y50A/Y89A/D107R, mean ± SD of 2 experiments
T1 sequence (P52298 1-156 Y50A/Y89A/D107R): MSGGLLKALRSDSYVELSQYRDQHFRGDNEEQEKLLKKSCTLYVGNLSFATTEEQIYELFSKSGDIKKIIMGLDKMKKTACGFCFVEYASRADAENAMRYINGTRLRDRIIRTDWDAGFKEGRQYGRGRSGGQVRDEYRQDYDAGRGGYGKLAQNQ
T1 sequence (Q09161 20-790 Y461A/R610E/H651A partner): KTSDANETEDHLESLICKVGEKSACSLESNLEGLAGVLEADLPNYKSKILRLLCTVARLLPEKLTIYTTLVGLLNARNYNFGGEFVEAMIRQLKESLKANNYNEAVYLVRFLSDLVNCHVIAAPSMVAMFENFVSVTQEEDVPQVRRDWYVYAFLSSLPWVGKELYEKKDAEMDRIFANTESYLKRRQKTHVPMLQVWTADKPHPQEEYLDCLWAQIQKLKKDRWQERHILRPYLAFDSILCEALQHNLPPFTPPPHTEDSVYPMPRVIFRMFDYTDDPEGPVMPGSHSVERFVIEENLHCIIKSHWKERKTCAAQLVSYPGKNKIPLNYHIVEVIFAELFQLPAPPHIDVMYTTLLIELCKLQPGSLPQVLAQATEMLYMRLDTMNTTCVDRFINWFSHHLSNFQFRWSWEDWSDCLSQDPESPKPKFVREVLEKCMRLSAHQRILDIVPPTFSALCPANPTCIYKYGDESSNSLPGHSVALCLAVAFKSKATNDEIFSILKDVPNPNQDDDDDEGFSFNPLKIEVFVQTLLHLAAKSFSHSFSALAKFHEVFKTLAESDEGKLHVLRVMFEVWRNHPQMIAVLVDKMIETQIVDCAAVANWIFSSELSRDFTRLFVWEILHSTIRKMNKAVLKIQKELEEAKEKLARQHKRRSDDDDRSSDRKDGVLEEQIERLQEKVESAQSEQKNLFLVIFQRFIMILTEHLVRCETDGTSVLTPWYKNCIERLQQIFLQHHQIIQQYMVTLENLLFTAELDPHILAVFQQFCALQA
Experimental: For CBC, a triple mutant in CBP80 (Y461A/R610E/H651A) was combined with various mutations in CBP20 (Y50A, Y50A/Y89A, or Y50A/Y89A/D107R).
ITC experiments were performed on a MicroCal ITC200 system (Malvern). Proteins were dialyzed overnight in buffer 20 mM HEPES, 120 mM NaCl, 2 mM tris(2-carboxyethyl)phosphine, pH 7.8. Injections of 1.5 µl protein A were added at an interval of 120–180 s into 205 µl of protein B in the cell, with a stirring speed of 800 rpm at 25 °C. The experimental data were analysed with MicroCal ITC Origin and were fitted to a single-site binding equation.

CBC-ARS2 827–871 = molecular target: T2, CBC-ARS2 827–871 (Homo sapiens, UniProt P52298); experiment: ITC, m^7GTP titrated to CBC saturated with ARS2 827–871; assay type: binding
T2 sequence (P52298 1-156): T1 sequence (P52298 1-156 Y50A/Y89A/D107R) with A50Y, A89Y, R107D
T2 sequence (Q09161 20-790 partner): T1 sequence (Q09161 20-790 Y461A/R610E/H651A partner) with A442Y, E591R, A632H
T2 sequence (Q9BXP5 832-876 partner): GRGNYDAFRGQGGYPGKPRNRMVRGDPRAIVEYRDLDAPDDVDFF
Text: Supplementary Figure 7. Influence of ARS2 and NELF-E on m7GTP binding to CBC.
Representative isothermal titration calorimetry data, presented as in the caption to Figure 1C,
allowing determination of the affinity of CBC to m7GTP in the absence (left) or in the
presence of bound ARS2827-871 (middle) or NELF-E244-380 (right). CBC or CBC saturated
with 2.2 molar excess of ARS2827-871 or NELF-E244-380 in the sample cell was titrated by
m7GTP. KD values represent the average from at least two independent experiments (see […]

Kd (CBC (6 mutations)): 70 ± 4 µM | Kd (CBC-ARS2 827–871; 25 °C, pH 7.8, CBC saturated with 2.2 molar excess of ARS2 827–871, titrated by m^7GTP, mean ± SD of 2 experiments, SD): 0.018 ± 0.001 µM | Increase of the affinity of CBC for cap (m^7GTP) by saturating ARS2 (CBC-ARS2 827–871; compared to m^7GTP binding to CBC alone): ~ 7 factor
Compound: C[n+]1cn([C@@H]2O[C@H](COP(=O)(O)OP(=O)([O-])OP(=O)(O)O)[C@@H](O)[C@H]2O)c2nc(N)[nH]c(=O)c21 [m^7GTP]
